This is an account of results in patent US10660338B2, “Sporocidal disinfectant or sanitising composition” (priority 2014, dated 2020).

The structures appear in SMILES notation.

Data set [1] is described as follows: Dye duration (lifetime before bleaching). It counts as physicochemical. The method, then: and wherein the colour indicator comprises a first non-mordant dye having a first colour and being bleachable after a first dye lifetime of 0.5 to 10 minutes in a test solution at 20° C. to 40° C. and pH8.0 to 8.5 containing 0.05 wt % to 0.15 wt % of the dye and 45 wt % to 55 wt % of sodium percarbonate;
a second non-mordant dye having a second colour different from the first colour and bleachable after a second dye lifetime of not less than 24 hours in the test solution; and
an optional third non-mordant dye having a third colour different from the first and second colours and bleachable after a third dye lifetime of not less than 36 hours in the test solution.

The test system of data set [2] is spores. Conditions: background statement; cited from earlier work.
Data set [3] relates to spores. Description: Sporocidal action of peracetic acid (general statements). In kind it is cell-based.

For `Cc1ccc(Nc2ccc(O)c3c2C(=O)c2ccccc2C3=O)c(S(=O)(=O)[O-])c1.[Na+]` [Acid Violet 43], the DURATION in data set [1] worked out at 5 min.

As for `O=S(=O)(O)c1cc(S(=O)(=O)O)c2c(/N=N\c3ccc(S(=O)(=O)O)c4ccccc34)c(O)ccc2c1` [Acid Red 18], the DURATION in data set [1] stood at 30 min.

In the case of `CC(=O)OO` [Peracetic acid], in data set [2], the “Concentration at which sporocidal” value is 4000 ppm. For the same molecule, the “Concentration sufficient to provide sporicidal action” value in data set [3] is “approximately 1000 ppm”.
